# Measurements: patent US20060099568A1, “Signals and molecular species involved in senescence” (priority 2002, published 2006)
# Columns and labels:
# [1] = system: phosphodiesterases (PDEs); assay: measurement of phosphodiesterase activity in LPA-treated cells; assay type: cell-based, human; details: 30 μg/ml LPA
# Protocol: Subconfluent presenescent (passage 8, Pa 8) and near-senescent (passage 24, Pa 24) fibroblasts were serum-starved for 2 days and treated with 30 μg/ml LPA for the indicated times. The activities of adenylyl cyclase (A) and phosphodiesterase (B) were determined in the fresh membranes and total cell lysates as described in Materials and Methods. The enzyme activities were calculated as pmol/μg/min. The data represents an average of triplicate experiments.
# Phosphodiesterase (PDE) assays were performed as described previously (Jang and Juhnn, 2001). 15 μg of cytosolic proteins were incubated in 200 μl of reaction mixture containing 50 mM Tris-HCl, pH 7.4, 3 mM MgCl2, 60 pmol cAMP, 1 mM 5′-AMP for 15 min at 37° C. After the reaction was stopped by adding 2.0 M perchloric acid, the amount of remaining cAMP was determined by cAMP binding assay.
# Phospholipase C (PLC) = details: near-senescent cells (passage 23) vs presenescent (passage 6); PDGF 50 ng/ml, LPA 1 μg/ml, 20 min, 20 mM LiCl
# phospholipase D (PLD) = assay: phosphatidylbutanol formation as an indication of phospholipase D activity; assay type: cell-based, human; details: passage 24 near-senescent cells vs presenescent; 0.5% 1-butanol, 20 min
# Protocol: Subconfluent presenescent (passage 8: Pa 8) and near-senescent (passage 24: Pa 24) cells were serum-starved and labeled with [^3H]myristic acid overnight. […] A representative experiment of three performed in duplicate is presented.
# Quiescent cells were labeled overnight with [^3H]myristic acid (1 μCi/ml) and then washed with PBS. Phosphatidylbutanol formation was measured as described by Yeo et al. (1994). Cells were preincubated with 0.5% (v/v) 1-butanol for 15 min and then treated with agonists for 20 min in the presence of 0.5% 1-butanol. Total lipids were extracted and separated by thin layer chromatography. The band of phosphatidylbutanol was scraped off the plates and its radioactivity was counted in a liquid scintillation cocktail.
# [2] = system: human diploid fibroblasts; assay: LPA-stimulated cell proliferation (viable cell count or MTT assay); assay type: cell-based; details: 4 days treatment
# Text: The optical density at 570 nm was plotted (A). The actual viable cell numbers were plotted (B).
# In order to study the role of LPA-induced cAMP signaling, the inventors further compared LPA-stimulated cell proliferation between presenescent and near-senescent cells. After 4 days treatment with vehicle or LPA, the level of viable cells were counted or measured by MTT assay.
# PKC = PKC activation (aggregation and translocation of PKC-α, confocal microscopy); assay type: cell-based, human; details: near-senescent cells (passage 29); 30 μg/ml LPA
# Protocol: FIG. 16 represents PKC activation by LPA in presenescent and near-senescent human diploid fibroblasts. Subconfluent presenescent (passage 10, Pa 10) and near-senescent (passage 29, Pa 29) fibroblasts were serum-starved for 2 days and treated with 30 μg/ml LPA for the indicated times. PKC activation was indicated by aggregation and translocation of PKC proteins into the plasma membrane. PKC-α was detected under a confocal microscopy system with polyclonal anti-PKC-α antibodies and FITC-conjugated secondary antibodies.
# CREB = CREB phosphorylation, Western blot with anti-phospho-CREB antibody; assay type: cell-based, human; details: near-senescent fibroblasts; 30 μg/ml LPA
# Protocol: FIG. 10 represents LPA-dependent PKA activity and CREB phosphorylation in presenescent and near-senescent fibroblasts. Subconfluent presenescent (passage 8, Pa 8) and near-senescent (passage 24, Pa 24) fibroblasts were serum-starved for 2 days and treated with 30 μg/ml LPA for the indicated times. The PKA activity (A) was determined in cell homogenates with kemptide and [γ^32P]ATP as substrates. The radioactivity incorporated into kemptide was measured by a beta-counter and the enzyme activity was calculated as pmol/min/mg protein. The data represents an average of triplicate experiments. The level of phospho-CREB (B) was measured by Western blot analysis using an anti-phospho-CREB antibody.
# The expression levels of signaling proteins were examined by Western blot analysis, as described previously (Yeo et al., 2000a). […] The protein concentrations of the lysates were determined using a BCA protein assay kit, as described by the protocol supplied by the manufacturer. […] To examine the level of phospholipase D 1/2, the immunoprecipitated protein obtained using 10 μl of anti-phospholipase D 1 anti-sera (Box45, ESTP4) was analyzed by Western blot against polyclonal anti-phospholipase D 1 antibodies (1:20 dilution of NC STP4 anti-serum).
# [3] = system: human diploid fibroblasts; assay: measurement of cytosolic free [Ca2+]i by confocal microscopy (fluo-3-AM); assay type: cell-based; details: PDGF 50 ng/ml, LPA 1 μg/ml
# Protocol: FIG. 1 represents differential changes in growth factor-stimulated calcium release in senescent fibroblasts. Presenescent (passage 7: A and C) and senescent (passage 27: B and D) fibroblasts were grown on coverslips, serum-starved, and incubated with 4 μM fluo-3-AM in serum-free medium for 40 min. The stained cells were treated with […] of platelet-derived growth factor (A and B) or 1 μg/ml of lysophosphatidic acid (C and D) via a micro-perfusion system for the real-time measurement of signaling molecules, and laser scanning confocal microscopy. The scanned images were analyzed for changes in intracellular Ca^2+ at the single cell level and results expressed as relative fluorescence intensity (RFI).
# [Ca^2+]i was measured using a laser scanning confocal microscope, as described by Junn et al. (2000). Quiescent fibroblasts grown on glass cover slips in a 6-well plate were stained with 4 μM of fluo-3-acetoxymethyl ester (fluo-3-AM) in phenol red-free medium without serum for 40 min and washed three times with the serum-free medium. Stained cells on each cover slip were mounted on a perfusion chamber (MPS-1000, Seoul Engineering, Korea), placed under the confocal laser scanning microscope (Carl Zeiss LSM 410), and scanned every 5 sec with a 488 nm excitation argon laser and a 515 nm long pass emission filter. Growth factors were added to the cells using an automatic pumping system (self-designed). All scanned images were analyzed for [Ca ^2+]i changes at the single cell level using “Time Series Program” for a real-time measurement of relative fluorescence intensity (RFI) which is installed in the Carl Zeiss LSM 410 confocal system.
substance,measurement,setting,value
lysophosphatidic acid [LPA],PDE activity,[1]; near-senescent cells,reduced
same,PDE activity,[1]; presenescent cells,increased
same,agonist-stimulated inositol phosphates (IPs) production,Phospholipase C (PLC),enhanced
same,reduction of PLD activity,phospholipase D (PLD),ca. 20%
same,rate of LPA-stimulated proliferation,[2]; near-senescent cells,partially decreased
same,cell proliferation,[2]; presenescent cells,stimulated proliferation of presenescent cells dose-dependently
same,PKC activation,PKC,further increase in PKC activation
same,CREB phosphorylation,CREB,correlated well with cAMP accumulation
same,cytosolic Ca2+ levels,[3]; presenescent fibroblasts (passage 7),rapid increase
same,Ca2+ response in senescent cells relative to presenescent,[3]; senescent cells (passage 27),not significantly
